Reference: patent US20230285504A1, “INHIBITION OF REPERFUSION INJURY WITH A PSD-95 INHIBITOR” (NONO INC., priority 2020, published 2023)
No end group written: not given here.

What was measured:
[1] = system: patients with acute ischemic stroke (AIS) due to a large vessel arterial occlusion selected for endovascular thrombectomy; conditions: published primary trial result; cited from earlier work
[2] = system: patients with acute ischemic stroke (AIS) due to a large vessel arterial occlusion selected for endovascular thrombectomy; test: ESCAPE-NA1 phase 3 trial, exploratory re-analyses of dosing time (mRS 0-2 at 90 days); format: in vivo, human
Procedure: The details of the ESCAPE-NA1 methodology are published^2. In-brief, the trial was conducted at 48 sites globally. Adult patients aged 18 or greater with a disabling ischemic stroke (baseline National Institutes of Health Stroke Scale (NIHSS) score^11>5), CT evidence of a small-to-moderate ischemic core (ASPECTS 5-10)^12 and CTA evidence of LVO with a moderate-to-good collateral circulation^13,14 were enrolled in a window of up to 12 hours after the onset of stroke symptoms (last-seen-well time). Enrollment was stratified on the use of intravenous alteplase (yes/no) and declared initial thrombectomy device (stent-retriever or aspiration device). Randomized minimization was conducted within strata aimed to achieve distribution balance with regard to age, sex, baseline NIHSS, site of arterial occlusion, baseline ASPECTS and clinical site. Nerinetide and placebo vials were visually identical other than a unique vial number so that all trial personnel and patients were fully masked to treatment allocation.
After qualifying imaging, patients were treated with rapid EVT using currently available devices. Patients received intravenous alteplase^15 according to usual care following national or regional guidelines, before or during EVT, at a primary hospital prior to transfer or at the endovascular center. Treatment with alteplase was not a requirement for the study and interpretation of treatment guidelines was at the discretion of the treating team. Patients received trial drug (1:1 nerinetide:placebo), as a single dose of 2.6 mg/kg to a maximum dose of 270 mg as soon as possible after randomization. Time targets were imaging to randomization 30 minutes, imaging to study drug administration 60 minutes, and imaging to arterial access/puncture 60 minutes. Targets from imaging to reperfusion were 90th percentile 90 minutes and a median at 75 minutes.^16,17 Times (min) for workflow are summarized in Table 3.
The primary outcome was good outcome at 90 days as defined by a score of 0-2 on the modified Rankin scale (mRS) (range, 0 [no symptoms] to 6 [death]) for the assessment of neurologic functional disability^18-20. Secondary 90 day efficacy outcomes included neurological outcome as defined by the NIHSS of 0-2, functional independence in activities of daily living as defined by a Barthel Index score of 95, and mortality rates. Tertiary outcomes included assessments of stroke volumes on 24-hour imaging (MR or CT brain). Imaging interpretation was conducted at a central core laboratory and clinical data were verified by independent monitors. Infarct volumes were measured by summation of manual planimetric demarcation of infarct on axial imaging (636/1099 (57.9%) on CT and 463/1099 (42.1%) on MRI).
Analyses of efficacy in this stratum were conducted as per the primary analysis of ESCAPE-NA1 on the intention-to-treat (ITT) population, and comprised a logistic regression providing an adjusted estimate of effect size including treatment, the stratification variable of declared initial endovascular approach, and the baseline covariates of age, sex, baseline NIHSS score, baseline ASPECTS, occlusion location and clinical site. Analyses of secondary efficacy outcomes were conducted similarly to the primary analysis. To determine the impact of time metrics of interest on the efficacy of nerinetide (e.g., Onset to randomization, CT to reperfusion, Randomization to reperfusion, and Drug administration to reperfusion), the metrics variables were included in the regression analysis that was otherwise conducted like the primary analysis. Deceased patients were included in the ITT population with a mRS score of 6, a Barthel Index of 0 and NIHSS of 42. Missing primary outcomes (n=9) were imputed as the worst possible score, counted as poor outcome (mRS 3-6 dichotomy) and for mortality analysis, imputed as deaths. All analyses were performed with the use of STATA software (v16.0).

[3] = intravenous over 10 minutes; cited from earlier work
[4] = Pharmacokinetics of nerinetide in rats with simultaneous alteplase; format: in vivo; conditions: rat
Procedure: A. LC/MS spectrum of nerinetide after incubation with plasmin in PBS. 10 uL aliquots of nerinetide (18 mg/mL) and plasmin (1 mg/mL) were incubated in 500 uL tubes of phosphate-buffered saline at 37 C for 5 min and the reaction stopped by cooling to −80C until tested. The various peaks correspond to the indicated fragments. Insert: Predicted trypsin cleavage sites and actual cleavage sites. (B,C) In-vitro effect of rt-PA on nerinetide content in rat (B) and human (C) plasma. Nerinetide was spiked into the plasma samples at t=0 at a concentration of 65 ug/ml, whereas alteplase (rt-PA) was administered as a 60 min infusion at the indicated concentration (D, E) In-vivo effect of the simultaneous administration of nerinetide and rt-PA on Cmax (D) and AUC (E) in the rat. The nerinetide bolus and alteplase (60 min infusion) were started simultaneously through two separate intravenous lines. Symbols represent mean±SD.
Since the effect of nerinetide in the ESCAPE-NA1 trial was negated by alteplase, we next evaluated the effects of alteplase on pharmacokinetics (PK) of nerinetide in rats. Alteplase was administered at 0.9 mg/kg (human dose) and at 5.4 mg/kg (6 times the human dose) in an infusion that simulated the clinical protocol (10% bolus followed by a 60 min infusion of the remainder). Nerinetide was administered as an intravenous bolus at the start of the alteplase infusion at 7.6 mg/kg.

[5] = target: protein-protein interactions of PSD-95 with neuronal nitric oxide synthase (nNOS) (Homo sapiens, UniProt P78352); conditions: read-out: IC50 perturbing PSD-95 interaction with nNOS; cited from earlier work
protein-protein interactions of PSD-95 with neuronal nitric oxide synthase (nNOS), sequence (P78352 whole entry, the tested form may be a part): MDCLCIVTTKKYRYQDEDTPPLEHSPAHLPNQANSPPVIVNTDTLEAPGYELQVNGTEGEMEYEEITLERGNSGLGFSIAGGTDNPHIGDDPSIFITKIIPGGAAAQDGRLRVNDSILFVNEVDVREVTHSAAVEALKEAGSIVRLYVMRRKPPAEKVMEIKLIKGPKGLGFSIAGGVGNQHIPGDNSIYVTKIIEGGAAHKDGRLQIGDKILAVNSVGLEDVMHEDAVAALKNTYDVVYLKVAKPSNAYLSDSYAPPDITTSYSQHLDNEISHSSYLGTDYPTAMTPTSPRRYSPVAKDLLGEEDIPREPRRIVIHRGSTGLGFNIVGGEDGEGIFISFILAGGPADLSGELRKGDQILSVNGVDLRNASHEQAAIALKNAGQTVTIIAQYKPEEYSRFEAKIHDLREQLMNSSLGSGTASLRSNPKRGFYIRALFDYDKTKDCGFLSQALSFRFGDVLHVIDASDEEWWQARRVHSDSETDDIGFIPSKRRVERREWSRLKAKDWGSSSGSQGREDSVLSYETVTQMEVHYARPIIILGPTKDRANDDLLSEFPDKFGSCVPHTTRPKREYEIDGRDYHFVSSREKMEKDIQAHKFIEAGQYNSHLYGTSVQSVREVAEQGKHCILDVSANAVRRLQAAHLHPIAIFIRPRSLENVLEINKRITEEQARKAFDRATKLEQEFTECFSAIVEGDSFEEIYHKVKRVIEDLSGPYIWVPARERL

[6] = no-alteplase, drug started 22 or more minutes from initial reperfusion
[7] = no-alteplase, long CT to reperfusion interval (>=73.5 minutes)
[8] = no-alteplase, study drug started less than 5 minutes after groin puncture
[9] = nerinetide 7.6 mg/kg iv bolus with alteplase 0.9 mg/kg (human dose)
[10] = nerinetide 7.6 mg/kg iv bolus with alteplase 5.4 mg/kg started simultaneously

## YGRKKRRQRRRKLSSIESDV [nerinetide]
[1]
  outcome in ESCAPE-NA1, nerinetide group that did not receive alteplase: improved functional independence, reduced mortality, and reduced infarct volume
  outcome in ESCAPE-NA1, patients that received alteplase: did not benefit
[2]; no-alteplase stratum, all time windows of 12 h enrollment, nerinetide 2.6 mg/kg vs placebo
  adj. OR for favorable outcome (mRS 0-2 at 90 days): 1.757
[2]; [6]
  absolute effect size of nerinetide over placebo: 16.25%
  relative effect: 50.0%
[2]; [7]
  adj OR for functional outcome (mRS 0-2): 5.100
  relative effect: 43.3%
  unadjusted absolute effect size: 16.52%
[2]; no-alteplase, long interval drug infusion start to initial reperfusion (>=22 minutes)
  adj OR for mRS(0-2): 2.715
[2]; no-alteplase, short CT to reperfusion interval (<73.5 minutes)
  adj OR for functional outcome (mRS 0-2): 0.825
[2]; no-alteplase, short interval drug infusion start to initial reperfusion (<22 minutes)
  adj OR for mRS(0-2): 1.13
[2]; no-alteplase, study drug more than 5 minutes after groin puncture
  adj OR, primary analysis (mRS 0-2): 1.50
[2]; no-alteplase, study drug started at any time less than 5 minutes after groin puncture
  adj OR, primary analysis (mRS 0-2): 2.33
[2]; [8]
  absolute effect size of nerinetide over placebo: 16.56%
  relative effect: 36.1%
[2]; no-alteplase, treated in longer intervals from reperfusion (summary)
  absolute effect sizes: approximately 16%
[2]; whole no-alteplase stratum
  absolute effect: 9.65%
[3]
  plasma half-life: 5 to 10 min
[4]; plasma, intravenous, 7.6 mg/kg, human equivalent concentrations (FIG. 6D)
  half-life: 5 to 10 min
[4]; [9]
  change of AUC of nerinetide: non-significant reduction
  change of Cmax of nerinetide: non-significant reduction
[4]; [10]
  lowering of mean AUC of nerinetide: 44%
  lowering of mean Cmax of nerinetide: 49.5%
[5]
  IC50: ~200 nM
